Patent US8008506B2, “Indazole compounds” (priority 2008, dated 2011)
≈ marks a conversion by molar mass, not a printed value.

Columns and labels:
[1] = Test Example 13: stability in pure water; format: physicochemical
Experimental: Test on Stability in Pure Water
(§1) A test compound is prepared in pure water to be in the saturated state. This solution is shaken for one hour at room temperature. After the shaking, the entire amount of the solution is transferred into a filter tube, and the solution is filtered by centrifugation. The filtrate is analyzed by HPLC immediately after filtration, 24 hours after filtration, and 48 hours after filtration. The stability of the test compound is determined using a calibration curve, based on the peak area value.
(§2) A standard solution is prepared by precisely weighing each test compound, and preparing a solution that sufficiently dissolves in pure water. The calibration curve is produced by assigning the concentration of the standard solution to the horizontal axis, and assigning the HPLC area peak at the concentration to the vertical axis.
(§3) YMC-Pack C18 (4.6 mm×150 mm) (manufactured by YMC Co., Ltd.) is used as a separating column. The detection is performed with UV-254 nm. The temperature in the column is set at 40° C. Elution is carried out at a flow rate of 1 ml/min, using solution A=water [containing 0.1% (v/v) acetic acid] and solution B=acetonitrile as the solvents, under the conditions in which a linear gradient of the solution B is run from 5 to 98% (v/v) from zero minute to 20 minute, subsequently solution B is eluted at 98% up to 25 minute, and the solution B is eluted at 5% from 25.01 minute to 35 minute.

[2] = Test Example 14: stability in phosphate buffer solution at pH 6.8; format: physicochemical
Experimental: as §1
Test on Stability in Phosphate Buffer Solution at pH 6.8
The stability of a test compound is determined by performing the same test as that performed in Test Example 13, except that the pure water is changed to a phosphate buffer solution at pH 6.8.

[3] = Test Example 11: solubility in hydrochloric acid buffer solution at pH 1.2; format: physicochemical; conditions: simulated gastric fluid, thermodynamic from solid; hydrochloric acid buffer solution at pH 1.2, 37° C., one hour, 1 mg/mL nominal
Experimental: Test on Solubility in Hydrochloric Acid Buffer Solution at pH 1.2
A test compound is precisely weighed to 500 μg, and a hydrochloric acid buffer solution at pH 1.2 is added thereto to a concentration of 1 mg/mL. The solution is shaken at 37° C. for one hour. After the shaking, the entire amount of the solution is transferred into a filter tube, and the solution is filtered by centrifugation. The filtrate is analyzed by HPLC, and the solubility of the test compound is determined by dividing the peak area value of the filtrate by the peak area value of the standard solution.
The standard solution is prepared by precisely weighing 500 μg of the test compound, and dissolving the test compound in DMSO to a concentration of 1 mg/mL.
as §3, with “nm.” for “nm. The temperature in the column is set at 40° C.”, “[…]” for “35”

[4] = Test Example 10: saturation solubility in pure water; format: physicochemical; conditions: thermodynamic from solid, room temperature, shaken one hour
Experimental: Saturation Solubility in Pure Water
as §1, with “HPLC,” for “HPLC immediately after filtration, 24 hours after filtration,”, “the saturation solubility” for “48 hours after filtration. The stability”
as §2
as §3, with “nm.” for “nm. The temperature in the column is set at 40° C.”

[5] = target: T1, human β2 adrenergic receptor (Homo sapiens, UniProt P07550); assay: Test Example 3-A: human β2 adrenergic receptor agonist activity (method of Test Example 1-A); format: cell-based; conditions: Table 1; for β2 receptor EC50: Test Example 3-A; for β2 receptor I.A.: maximum response to isoproterenol taken as 100%
T1 construct: expressed in transfected cells; host or cells: CHO (Chinese Hamster Ovary) cells, pcDNA3
Experimental: [Worded in the source for another target; this target is reported under the same test.] The measurement of human β3 adrenergic receptor agonist activity is carried out using CHO (Chinese Hamster Ovary) cells transfected with pcDNA3 (manufactured by Invitrogen, Inc.) to which human β3 gene has been inserted. […] This human β3 cDNA fragment is used as a probe, and the full length human β3 gene is obtained from a human genomic library (manufactured by Clontech Laboratories, Inc.). The above cells are cultured in Ham's F-12 medium containing 10% fetal bovine serum and 400 μg/ml geneticin (manufactured by Invitrogen, Inc.). These cells are seeded on a 24-well plate to a concentration of 1×10^5 cells/well, and after being cultured for about 20 hours, the cells are left to stand in serum-free Ham's F-12 medium for 2 hours. A test compound is initially dissolved in DMSO, and then is diluted stepwise with Ham's F-12 containing 20 mmol/L HEPES, 1 mmol/L isobutylmethylxanthine, and 1 mmol/L ascorbic acid. The dilution is added to the cells. After the cells are cultured for 30 minutes, and then the medium is removed, followed by addition of 0.1 ml of 1 N NaOH to the cells. The cells are left to stand for 20 minutes, and then are added with 0.1 ml of 1 N acetic acid and are stirred. The resulting cell lysate is centrifuged, and then is subjected to quantification of cAMP with cAMP EIA kit (manufactured by Cayman Chemical Co.). […] Measurement of Human β2 Adrenergic Receptor Agonist Activity

T1 sequence (P07550 whole entry): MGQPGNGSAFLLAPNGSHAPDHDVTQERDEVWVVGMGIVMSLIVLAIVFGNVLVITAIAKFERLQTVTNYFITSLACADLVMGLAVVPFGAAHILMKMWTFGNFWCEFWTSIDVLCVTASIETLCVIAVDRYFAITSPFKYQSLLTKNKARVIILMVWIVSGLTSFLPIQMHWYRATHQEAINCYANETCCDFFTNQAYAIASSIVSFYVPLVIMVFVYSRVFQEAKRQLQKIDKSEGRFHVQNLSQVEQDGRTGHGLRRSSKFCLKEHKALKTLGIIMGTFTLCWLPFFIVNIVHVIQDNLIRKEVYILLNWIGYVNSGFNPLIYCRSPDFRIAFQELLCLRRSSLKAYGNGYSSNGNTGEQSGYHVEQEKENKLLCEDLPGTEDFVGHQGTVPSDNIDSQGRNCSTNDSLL

| SMILES | HPLC area percent ([1]; after 24 hours) [%] | HPLC area percent ([1]; after 48 hours) [%] | HPLC area percent ([1]; immediately after filtration) [%] | HPLC area percent ([2]; after 24 hours) [%] | HPLC area percent ([2]; after 48 hours) [%] | HPLC area percent ([2]; immediately after filtration) [%] | solubility at 1 h [3] [µg/mL] | solubility at 1 h [4] [mg/mL] | β2 receptor EC50 [5] | β2 receptor I.A. [5] [%] |
| --- | --- | --- | --- | --- | --- | --- | --- | --- | --- | --- |
| CCCc1n[nH]c2cc(OCCNC[C@H](O)c3cccc(NS(C)(=O)=O)c3)ccc12 [Example 3, (R)-N-(3-(1-hydroxy-2-(2-(3-propylindazol-6-yloxy)ethylamino)ethyl)phenyl)methanesulfonamide] | – | – | – | – | – | – | – | 50 (≈ 116 mM) | – | – |
| CN(C)C(=O)CCc1n[nH]c2cc(OCCNC[C@H](O)c3cccc(NS(C)(=O)=O)c3)ccc12 [Example 5, (R)-3-(6-(2-(2-hydroxy-2-(3-(methylsulfonamido)phenyl)ethylamino)ethoxy)-indazol-3-yl)-N,N-dimethylpropanamide] | – | – | – | – | – | – | ≥ 1000 | 491 (≈ 1000 mM) | a) | 3.2 |
| CCc1n[nH]c2cc(OCCNC[C@H](O)c3cccc(NS(C)(=O)=O)c3)ccc12 [Example 2, (R)-N-(3-(1-hydroxy-2-(2-(3-ethylindazol-6-yloxy)ethylamino)ethyl)phenyl)methanesulfonamide] | 98.2 | 98.2 | 98.2 | 98.2 | 98.2 | 98.2 | ≥ 1000 | 204 (≈ 487 mM) | a) | 3.0 |

Continued, values first:

| HPLC area percent ([1]; after 24 hours) [%] | HPLC area percent ([1]; after 48 hours) [%] | HPLC area percent ([1]; immediately after filtration) [%] | HPLC area percent ([2]; after 24 hours) [%] | HPLC area percent ([2]; after 48 hours) [%] | HPLC area percent ([2]; immediately after filtration) [%] | solubility at 1 h [3] [µg/mL] | solubility at 1 h [4] [mg/mL] | β2 receptor EC50 [5] | β2 receptor I.A. [5] [%] | SMILES |
| --- | --- | --- | --- | --- | --- | --- | --- | --- | --- | --- |
| 99.8 | 99.8 | 100 | 99.9 | 100 | 99.8 | ≥ 1000 | – | – | – | CC(C)c1n[nH]c2cc(OCCNC[C@H](O)c3cccc(NS(C)(=O)=O)c3)ccc12 [Example 1, (R)-N-(3-(1-hydroxy-2-(2-(3-isopropylindazol-6-yloxy)ethylamino)ethyl)phenyl)methanesulfonamide] |
| – | – | – | – | – | – | ≥ 1000 | – | a) | 7.6 | COCc1n[nH]c2cc(OCCNC[C@H](O)c3cccc(NS(C)(=O)=O)c3)ccc12 [Example 6, (R)-N-(3-(1-hydroxy-2-(2-(3-methoxymethylindazol-6-yloxy)ethylamino)ethyl)phenyl)methanesulfonamide] |
| 98.7 | 98.6 | 98.7 | 99.6 | 99.6 | 99.6 | 963 (≈ 2.1 mM) | 71 (≈ 155 mM) | – | – | CS(=O)(=O)Nc1cccc([C@@H](O)CNCCOc2ccc3c(C(F)(F)F)n[nH]c3c2)c1 [Example 4, (R)-N-(3-(1-hydroxy-2-(2-(3-trifluoromethylindazol-6-yloxy)ethylamino)ethyl)phenyl)methanesulfonamide] |
